The text below walks through data of paper PMC8780768 (Life, 2022).

Format in all cases: cell-based
In test [1] the target is T1, GABA-ρ1 receptors (Homo sapiens, UniProt P24046).
T1 construct: expressed in transfected cells; host or cells: Xenopus laevis oocytes injected with cRNA
As to the kind of experiment: Two-electrode voltage-clamp, agonist dose–response at GABA-ρ1 receptors expressed in Xenopus oocytes. The protocol:
(§1) Ovary lobes were dissected from female Xenopus laevis (South Africa clawed frogs), which were removed as reported previously, in accordance with the National Health and Medical Research Council (NHMRC) of Australia’s ethical guidelines. This procedure is also approved by the University of Sydney’s animal ethics committee (2013/5915). In brief, the females of Xenopus laevis were anaesthetized using 0.17% 3-aminobenzoic acid ethyl ester with 0.02% NaCl for 10–15 min, and a lobe of the ovary was dissected. The lobes were washed with oocyte releasing buffer 2 (OR2: 82.5 mM NaCl, 5 mM HEPES, 2 mM KCl, 1 mM MgCl2.6H2O pH 7.5) and incubated with collagenase A (2 mg·mL^−1 in OR2, Boehringer Mannheim, Mannheim, Germany) for approximately 2 h to separate oocytes from follicular cells and connective tissue. The released oocytes were washed in ND96 solution (96 mM NaCl, 1 mM MgCl2.6H2O, 2 mM KCl, 5 mM HEPES, and 1.8 mM CaCl2 pH 7.5). Stage V–VI oocytes were collected and injected in the cytoplasm using a 15–20 μm diameter tip micropipette (micropipette puller, Sutter Instruments, Novato, CA, USA) and a Nanoject injector (Drummond Scientific Co., Broomall, PA, USA) set to deliver a total of ~15 ng of cRNA.
(§2) The injected oocytes were placed on an oscillator at 18 °C for 2–6 days in ND96 solution, which contained 0.5 mM theophylline, 2.5 mM pyruvate, 50 μg/mL tetracycline, and 50 μg/mL gentamycin.
(§3) The activity of receptors was tested by recording whole cell currents using the two-electrode voltage clamp technique as previously reported. In brief, fabricated microelectrodes prepared with a micropipette puller (Sutter instruments, Novato, CA, USA), were filled with 3 M KCl solution (0.3–2.3 MΩ). Oocytes were immersed with ND96 buffer in the cell chamber at approximately 5 mL/min rate. The microelectrode impaled cells were clamped at −60 mV (voltage), and the currents elicited in response to the application of ligand/s was recorded using a Power Lab 2/25 analogue–digital data acquisition system (AD Instruments, Sydney, NSW, Australia), a Geneclamp 500 B amplifier (Axon Instrument, Foster City, CA, USA), and Lab Chart version 5.0.2 program (ADInstruments, Sydney, Australia).
(§4) Ligands were applied into the perfusate until a peak response (maximal) was reached. All stock solutions of the ligands were freshly made on the day of experiments. Solutions of ligands dissolved in DMSO were standardized to contain less than 0.8% DMSO in the final perfusate solution to prevent any alteration in the recordings. Perfusates containing these ligands (chemicals) were freshly prepared before each application. The dose–response curves of ligands were obtained by increasing the concentrations of applied agonists on oocytes until the maximum current reached. […] All experiments were conducted using at least two batches of oocytes.
(§5) I = Imax [A]^nH / (EC50^nH + [A]^nH)(1) where I is the current response, referring to a known concentration of agonist; Imax is the maximum current obtained; [A] is the agonist concentration; EC50 is the concentration of agonist/partial agonist at which the current response is half maximal; and nH is the Hill coefficient.
In general terms: Two-electrode voltage clamp is typically applied to oocytes expressing channels or transporters.

The target of test [2] is T2, GABA-ρ2 receptors (Homo sapiens, UniProt P28476).
T2 construct: expressed in transfected cells; host or cells: Xenopus laevis oocytes injected with cRNA
As to the kind of experiment: Two-electrode voltage-clamp, agonist dose–response at GABA-ρ2 receptors expressed in Xenopus oocytes. As to conditions: for GABA-ρ2 Efficacy: relative to GABA maximal response. The protocol:
as §1, §2, §3, §4, §5

Test [3] has as its target T1, GABA-ρ1 receptors. As to the kind of experiment: Two-electrode voltage-clamp, co-application of ligand with GABA EC50 at GABA-ρ1 receptors (additive/inhibition). Conditions: for GABA-ρ1 Additive/Inhibition Hill slope: co-application curve with GABA EC50. The procedure: as §3, §4, §5
(§6) The equations for bell-shaped and biphasic curves are embedded in GraphPad PRISM 8.02.
(§7) A p value < 0.05 was considered statistically significant. […] Significance assigned * if p < 0.05, ** if p < 0.01, *** if p < 0.001 and **** if p < 0.0001.

Test [4] deals with T2, GABA-ρ2 receptors. As to the kind of experiment: Two-electrode voltage-clamp, co-application of ligand with GABA EC50 at GABA-ρ2 receptors (additive/inhibition). The procedure:
as §3, §4, §5, §6, §7

Setting [5] is: TEVC, Xenopus oocytes, −60 mV, read-out: GABA-ρ1 EC50.
Setting [6] is: relative to GABA maximal response.
The mark [7] stands for this setting: TEVC, Xenopus oocytes, −60 mV, read-out: GABA-ρ2 EC50.
Setting [8] is: co-applied with GABA EC50, % of GABA EC50 response.
The mark [9] stands for this setting: co-application curve with GABA EC50 (800 nM).
Where [10] appears, read: co-applied with GABA EC50 (800 nM), % of GABA EC50 response.
[11] abbreviates: bell-shaped/biphasic co-application curve with GABA EC50.

Several values for one entry are separate records, joined by “and”; a condition that tells them apart may be missing. Identical values can stand only once. Like-named read-outs stand apart in the source and are kept apart here.

T2 sequence (P28476 21-465): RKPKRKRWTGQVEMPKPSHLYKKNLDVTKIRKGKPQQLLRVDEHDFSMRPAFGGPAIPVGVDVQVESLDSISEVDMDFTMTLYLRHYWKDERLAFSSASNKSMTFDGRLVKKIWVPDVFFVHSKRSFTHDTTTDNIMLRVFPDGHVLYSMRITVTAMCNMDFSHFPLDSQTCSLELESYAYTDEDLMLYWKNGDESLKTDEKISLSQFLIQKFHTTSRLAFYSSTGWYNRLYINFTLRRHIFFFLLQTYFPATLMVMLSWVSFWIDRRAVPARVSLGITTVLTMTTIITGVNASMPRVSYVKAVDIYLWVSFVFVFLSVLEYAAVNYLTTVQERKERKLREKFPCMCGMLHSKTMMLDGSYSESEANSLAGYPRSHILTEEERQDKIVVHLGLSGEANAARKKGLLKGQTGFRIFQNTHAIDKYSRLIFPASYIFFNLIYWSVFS
T1 sequence (P24046 22-479): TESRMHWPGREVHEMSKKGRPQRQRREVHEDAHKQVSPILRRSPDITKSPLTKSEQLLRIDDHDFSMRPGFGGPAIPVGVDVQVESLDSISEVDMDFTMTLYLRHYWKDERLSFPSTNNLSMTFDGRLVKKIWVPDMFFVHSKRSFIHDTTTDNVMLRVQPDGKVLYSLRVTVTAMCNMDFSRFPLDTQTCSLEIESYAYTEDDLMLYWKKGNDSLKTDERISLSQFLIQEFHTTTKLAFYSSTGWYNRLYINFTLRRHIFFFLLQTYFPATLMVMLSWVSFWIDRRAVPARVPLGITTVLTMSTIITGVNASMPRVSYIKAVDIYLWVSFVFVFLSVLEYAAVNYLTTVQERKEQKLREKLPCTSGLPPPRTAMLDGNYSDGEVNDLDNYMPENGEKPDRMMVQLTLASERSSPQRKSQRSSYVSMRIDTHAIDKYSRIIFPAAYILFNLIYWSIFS

For `NCCCCC(=O)O` [5-Aminovaleric acid, 5-amino valeric acid], the concentration for a half-maximal effect (EC50) – broadly, the concentration giving half of the maximal effect – in test [1] (setting [5]) stood at 600 µM. Also, the “GABA-ρ1 Efficacy” value in test [1] (setting [6]) is on record as 3%. Moreover, in test [2] (setting [7]), the EC50 was found to be 36 µM. For the same molecule, the “GABA-ρ2 Efficacy” value in test [2] turned out to be 45%. In test [3], the IC50 (in general, the concentration that gives 50% inhibition) was 35 µM and the “GABA-ρ1 Additive/Inhibition Hill slope” value was found to be 3 ± 0.75. In test [3] (setting [8]), the “GABA-ρ1 Additive (%)” value turned out to be 125%. The molecule also registered an IC50 in test [4] of 10 µM. Moreover, the “GABA-ρ2 Additive/Inhibition Hill slope” value in test [4] (setting [9]) came to 0.6 ± 0.48. The “GABA-ρ2 Additive (%)” value in test [4] (setting [10]) was determined as 110%. In test [4] (oocytes), the “% of GABA EC50 response when co-applied with 1 µM ligand” value came to 92% and the “% of GABA EC50 response when co-applied with 100 µM ligand” value is reported as 51.1%.

Regarding `NC/C=C\C(=O)O` [CACA], the “GABA-ρ1 Efficacy” value in test [1] turned out to be 60%. Further, the EC50 in test [1] (setting [5]) is 93 ± 5.2 µM. The EC50 in test [2] (setting [7]) came to 37 ± 12 µM. In addition, in test [2], the “GABA-ρ2 Efficacy” value is 60%. For the same molecule, in test [3], the “GABA-ρ1 Additive (%)” value is 160% and the “GABA-ρ1 Additive/Inhibition Hill slope” value is 0.9 ± 0.44. In addition, the “effect on GABA EC50 response when co-applied with 1 mM ligand” value in test [4] (GABA-ρ2, GABA EC50, ligand 1 mM, data not shown) is listed as “does not show any significant effect”.

Take `NCCCC(=O)O` [GABA]: the half-maximal effective concentration (EC50) in test [2] (TEVC, Xenopus oocytes, read-out: GABA-ρ2 EC50) was determined as 0.8 µM.

Regarding `NCC(=O)O` [Glycine, glycine], the half-maximal effective concentration (EC50) in test [1] (setting [5]) was roughly 1000 µM. Besides, the “GABA-ρ1 Efficacy” value in test [1] (setting [6]) is 25%. For the same molecule, in test [2] (setting [7]), the EC50 is roughly 1000 µM. In test [2], the “GABA-ρ2 Efficacy” value was 70%. The “GABA-ρ1 Additive (%)” value in test [3] (setting [8]) was found to be 170%. Moreover, in test [4], the “% of GABA EC50 response when co-applied with 1 µM ligand” value is given as “does not show a significant effect”; the “% of GABA EC50 response when co-applied with 100 µM ligand” value was 115.4% and 115%; the “GABA-ρ2 Additive (%)” value worked out at 115%. For the same molecule, in test [4] (setting [11]), the “GABA-ρ2 Additive/Inhibition nH1” value is 1.8 ± 0.3 and the “GABA-ρ2 Additive/Inhibition nH2” value is reported as 1.7 ± 0.5.

`O=C(O)Cc1c[nH]cn1` [Imidazole-4-acetic acid, imidazole-4-acetic acid] gave a 50% effective concentration (EC50) in test [1] of 66 µM. Also, the “GABA-ρ1 Efficacy” value in test [1] (setting [6]) came out at 10%. In test [2], the EC50 is 0.2 µM and the “GABA-ρ2 Efficacy” value was 40%. For the same molecule, in test [2] (ρ2 versus ρ1), the “efficacy at GABA-ρ2 receptors, fold higher than at GABA-ρ1 receptors” value worked out at 100 fold and the “potency at GABA-ρ2 receptors, fold higher than at GABA-ρ1 receptors” value worked out at 4 fold. Besides, in test [3], inhibition was half-maximal at 0.8 µM (IC50) and the “GABA-ρ1 Additive/Inhibition Hill slope” value came to 1.3 ± 0.22. In test [3] (setting [8]), the “GABA-ρ1 Additive (%)” value amounted to 115%. Besides, in test [4], the “GABA-ρ2 Additive (%)” value turned out to be 110%, the “GABA-ρ2 Additive/Inhibition Hill slope” value was 0.87 ± 0.39 and the IC50 stood at 2.4 µM. Also, in test [4] (oocytes), the “% of GABA EC50 response when co-applied with 1 µM ligand” value was found to be 94.2 ± 1.4% and the “% of GABA EC50 response when co-applied with 10 µM ligand” value is 86.25 ± 3.5%.

Regarding `O=C(O)C1=CCNCC1` [Isoguvacine, isoguvacine], the EC50 came to 205 µM in test [1] (setting [5]) and 35 µM in test [2] (setting [7]). Besides, the “GABA-ρ1 Efficacy” value in test [1] (setting [6]) is given as 40%. Also, the “efficacy at GABA-ρ1 receptors, fold higher than at GABA-ρ2 receptors” value in test [1] (ρ1 versus ρ2) is recorded as “two-fold”. In addition, in test [2], the “GABA-ρ2 Efficacy” value is listed as 25%. The “potency at GABA-ρ2 receptors, fold higher than at GABA-ρ1 receptors” value in test [2] (ρ2 versus ρ1) is “six-fold”. In addition, the “GABA-ρ1 Additive/Inhibition Hill slope” value in test [3] stood at 0.57 ± 0.25. Also, the “GABA-ρ1 Additive (%)” value in test [3] (setting [8]) is 135%. Moreover, the “GABA-ρ2 Additive/Inhibition Hill slope” value in test [4] (setting [9]) came out at 0.37 ± 3.1. The “GABA-ρ2 Additive (%)” value in test [4] (setting [10]) was determined as 120%. The “% of GABA EC50 response when co-applied with 1 µM ligand” value in test [4] (oocytes) was determined as 106.8 ± 2.5%. For the same molecule, in test [4] (oocytes), the “% of GABA EC50 response when co-applied with 10 µM ligand” value is 110 ± 4.3%.

For `NCc1cc(=O)[nH]o1` [Muscimol, muscimol], in test [1], the EC50 came out at 1.25 µM. Also, the “GABA-ρ1 Efficacy” value in test [1] (setting [6]) is recorded as 80%. In test [2], the EC50 was found to be 0.65 µM and the “GABA-ρ2 Efficacy” value was found to be 65%. For the same molecule, the “GABA-ρ1 Additive (%)” value in test [3] (setting [8]) is reported as 125%. For the same molecule, in test [4], the “GABA-ρ2 Additive (%)” value is 112% and the “GABA-ρ2 Additive/Inhibition Hill slope” value was 0.14 ± 0.48. In test [4] (oocytes), the “% of GABA EC50 response when co-applied with 1 µM ligand” value turned out to be 106.9 ± 1.1% and the “% of GABA EC50 response when co-applied with 10 µM ligand” value was 107.9 ± 3.1%.

`NC/C=C/C(=O)O` [TACA]: in test [1], the “GABA-ρ1 Efficacy” value is 95%. Also, the EC50 in test [1] (setting [5]) came to 0.6 µM. Besides, the EC50 in test [2] (setting [7]) stood at 0.45 ± 0.4 µM. For the same molecule, the “GABA-ρ2 Efficacy” value in test [2] is 85%. Besides, in test [3], the “GABA-ρ1 Additive (%)” value worked out at 190% and the “GABA-ρ1 Additive/Inhibition Hill slope” value turned out to be 0.9 ± 0.08. Besides, the “GABA-ρ2 Additive/Inhibition Hill slope” value in test [4] (setting [9]) came out at 0.8 ± 0.46. Further, the “GABA-ρ2 Additive (%)” value in test [4] (setting [10]) was 140%. Also, in test [4] (oocytes), the “% of GABA EC50 response when co-applied with 1 µM ligand” value is listed as 118.4% and the “% of GABA EC50 response when co-applied with 10 µM ligand” value is recorded as 137.5%.

In the case of `NCCC(=O)O` [β-Alanine, β-alanine], the EC50 in test [1] came to 400 µM; in test [2], 560 µM. In addition, the “GABA-ρ1 Efficacy” value in test [1] (setting [6]) is listed as 30%. In addition, the “GABA-ρ2 Efficacy” value in test [2] was 85%. In addition, in test [3], the “GABA-ρ1 Additive/Inhibition Hill slope” value was determined as 1.5 ± 0.8. Also, in test [3] (setting [8]), the “GABA-ρ1 Additive (%)” value is 120%. For the same molecule, the “% of GABA EC50 response when co-applied with 100 µM ligand” value in test [4] (GABA-ρ2, GABA EC50 800 nM, ligand 100 µM) is on record as “no significant effect”. The “GABA-ρ2 Additive/Inhibition nH2” value in test [4] (setting [11]) was found to be 1.6 ± 0.36. Further, the “GABA-ρ2 Additive (%)” value in test [4] (setting [10]) stood at 120%. For the same molecule, the “% of GABA EC50 response when co-applied with 1 µM ligand” value in test [4] (oocytes) is 108.9%.
